As usually defined, the IC50 is the concentration at which inhibition is half-maximal. In general, EC50 refers to the concentration at which the effect is half-maximal.

For data set [1], the system named is HCT-116 (Colon). Description: Cytotoxicity by MTT assay, HCT-116. As to conditions: Homo sapiens, 72 h, three days continuous exposure. In kind it is cell-based. A general note: Tetrazolium dyes change colour on reduction, which living cells bring about.
A short description of data set [2]: Plasma pharmacokinetics of etodolac enantiomers. In kind it is in vivo. As to conditions: 1 gram dosage, human subject.
The test system of data set [3] is normal bone marrow cells. Description: Killing of normal bone marrow cells in patient bone marrow (propidium iodide / anti-CD38, FACS). In kind it is cell-based, human. As to conditions: 72 hours, marrow of two patients; FIGS. 9-10.
Data set [4] relates to CLL cells. Description: Viability of CLL cells, erythrocin B exclusion assay.
Data set [5] has as its system LNCaP-FGC (Prostate). Description: Cytotoxicity by MTT assay, LNCaP-FGC. It counts as cell-based. As to conditions: 72 h, three days continuous exposure.
A short description of data set [6]: in vitro. The note with it: human.
In data set [7] the test system is CLL cells. Description: MTT cytotoxicity assay, CLL cells. The note with it: Homo sapiens, CLL cell, 72 hours, duplicate. In kind it is cell-based. The procedure:
The compounds of the invention were screened for CLL apoptotic activity by flow cytometry and a MTT-based assay. […] Primary PBL cells were acquired from the San Diego Blood Bank, San Diego, Calif. DiOC6 and PI dyes were obtained from Molecular Probes, Eugene, Oreg. Otherwise, unless indicated, all other reagents were purchased from Sigma (St. Louis, Mo.), and all test compounds were dissolved in sterile DMSO.
To get a more concise measure of the EC50 and confirm the flow cytometry results, a MTT (3-(4,5-dimethylthiazol-2-yl)-2,5-diphenyl tertrazolium bromide) assay using a procedure similar to that described by Mosmann, T., J Immunol Methods. 1983, 65, 55-63, was performed on all analogs. This method provided a larger number of datapoints so that a value for the EC50 could be extrapolated.
This assay was based on a procedure described by Mosmann. Briefly, in each well of a 96-well plate, 5×10^5 CLL cells were suspended in 100 μL of […] medium containing 10% FBS, 100 μg/mL penicillin, and 100 μg/mL streptomycin. Serial dilution of test compounds were then performed in duplicate across the plate to establish a concentration gradient from 0 to 1000 μM. After 72 hours of incubation at 37° C., the cells were incubated for 6 more hours in the presence of 20 μL of 5 mg/mL MTT (3-(4,5-dimethylthiazol-2-yl)-2,5-diphenyl tertrazolium bromide) before dissolving the resulting crystals in 50 μL lysis buffer (15% SDS, 15 mM HCl) overnight. Afterwards, the absorbance of each well was measured at […] in a Finstrument Microplate Reader, and the data was analyzed by Graphpad Prism Software, version 2.0b.

The test system of data set [8] is MDA-MB-231 (Breast). As to the kind of experiment: Cytotoxicity by MTT assay, MDA-MB-231. It counts as cell-based. The note with it: Homo sapiens, 72 h, three days continuous exposure.
The test system of data set [9] is adjuvant polyarthritis. The note with it: reduction in paw volume, prostaglandin synthetase inhibitory activity; cited from earlier work.
Data set [10] has as its system A549 (Lung). Description: Cytotoxicity by MTT assay, A549. It counts as cell-based. As to conditions: Homo sapiens, 72 h, three days continuous exposure.
Data set [11] deals with multiple myeloma cells. As to the kind of experiment: Killing of multiple myeloma cells in patient bone marrow (propidium iodide / anti-CD38, FACS). The note with it: 72 hours, marrow of two patients; FIGS. 9-10. It counts as cell-based, human.
For data set [12] the following is noted: cited from earlier work.
Data set [13] concerns OVCAR-3 (Ovarian). Description: Cytotoxicity by MTT assay, OVCAR-3. It counts as cell-based. As to conditions: Homo sapiens, 72 h, three days continuous exposure.
Data set [14] has as its system prostate cancer tissue. As to the kind of experiment: Prostatectomy tissue samples incubated 72 hours, histology. In kind it is cell-based. From the text: The tissues were next fixed in 4% paraformaldehyde in PBS, embedded in paraffin, sectioned and stained with hematoxylin and eosin.
Data set [15] deals with PC-3 (Prostate). As to the kind of experiment: Cytotoxicity by MTT assay, PC-3. It counts as cell-based. As to conditions: 72 h, three days continuous exposure.
Data set [16] concerns Alva-31 (Prostate). Description: Cytotoxicity by MTT assay, Alva-31. In kind it is cell-based. The note with it: 72 h, three days continuous exposure.
For data set [17], the system named is Mcl-1. As to the kind of experiment: Mcl-1 level in LNCaP cells, SDS-PAGE immunoblot. In kind it is cell-based. On the technique in general: Immunoblotting shows a protein as a band on a membrane.
Data set [18] relates to Bcl-2 and Bax. Description: Bcl-2 and Bax levels after etodolac incubation. It counts as cell-based. The note with it: data not shown.
In data set [19] the test system is CLL cells. As to the kind of experiment: Viability of CLL cells taken from patients before and after oral etodolac. In kind it is in vivo, human. As to conditions: for in vitro survival of CLL cells after treatment compared to before treatment: 400 mg tablet, second tablet 12 hours later.
Protocol: The circles show CLL cells before etodolac treatment. In FIGS. 6-7, the upward pointing triangles represent CLL cell viability after etodolac treatment, wherein the cells are dispersed in medium containing the pretreatment plasma. The downward pointing triangles are CLL cells after treatment maintained in medium with the post-treatment plasma. […] Cells were analyzed within 30 minutes in a Becton Dickinson FAC-Scalibur cytofluorometer. After suitable comprehension, fluorescence was recorded at different wavelength: DiOC6 and DHR at 525 nm (Fl-1) and PI at 600 nm (FL-3).
Data set [20] relates to normal peripheral blood lymphocytes (PBL). Description: Viability of normal peripheral blood lymphocytes, erythrocin B exclusion assay. In kind it is cell-based, human. The note with it: FIG. 1.
Data set [21] relates to SW260 (Colon). As to the kind of experiment: Cytotoxicity by MTT assay, SW260. It counts as cell-based. As to conditions: 72 h, three days continuous exposure.
The test system of data set [22] is Bag-1. As to the kind of experiment: Bag-1 level in LNCaP cells, SDS-PAGE immunoblot. In kind it is cell-based. The note with it: 100 μM, as early as two hours, FIG. 11B.
For data set [23], the system named is normal B cells. As to the kind of experiment: Viability of normal B lymphocytes (anti-CD19 staining, DiOC6 fluorescence). In kind it is cell-based, human. The note with it: 1.0 mM, 24 hours.
Protocol: Then B lymphocytes were identified by staining with anti-CD19 antibody, and viability was assessed by DiOC6 fluorescence.

Consider `CCc1cccc2c3c([nH]c12)[C@@](CC)(CC(=O)O)OCC3` [R-etodolac], for which the IC50 is 280 ± 20 µM in data set [1]; 270 ± 50 µM in data set [5]; over 1000 µM in data set [8]; over 1000 µM in data set [10]; over 1000 µM in data set [13]; 150 ± 15 µM in data set [15]. The molecule further returned an IC50 in data set [16] of over 1000 µM. Moreover, the “maximal plasma concentration that a dosage should yield” value in data set [2] is “about 400 μM”. In [3], the “killing of normal bone marrow cells” value was “did not kill”. The “toxicity of the enantiomers to CLL cells” value in [4] (RPMI 1640 with 10% autologous plasma, FIG. 5) was “equivalently cytotoxic”. This molecule also yielded a CC50 at 48 h in data set [6] of about 500 µM. This molecule also yielded an EC50 in data set [7] of 247 µM. The anti-inflammatory activity result in data set [9] is given as “No anti-inflammatory activity was discernible”. In addition, the “killing of multiple myeloma cells” value in data set [11] was “dose-dependently killed”. For the same molecule, in data set [12] (200 mg dose, six elderly patients), the maximum plasma concentration result is recorded as “about 33 μM”. Besides, the “plasma concentrations of the R-enantiomer relative to the S-enantiomer” value in [12] (after administration of RS-etodolac) is on record as “about 10 fold higher”. The “activity in prostatectomy samples” value in data set [14] was “active”. Besides, the “Mcl-1 degradation by the enantiomers” value in data set [17] is recorded as “induced Mcl-1 degradation at equivalent concentrations”.

With `CCc1cccc2c3c([nH]c12)C(CC)(CC(=O)O)OCC3` (racemic) [etodolac, 1,8-Diethyl-1,3,4,9-tetrahydropyrano[3,4-b]indole-1-acetic acid], the IC50 in data set [1] is 450 ± 15 µM; in data set [5] it was 400 ± 35 µM; in [21], 1000 ± 120 µM; in [8], over 1000 µM; in [10], over 1000 µM; in data set [13], over 1000 µM. The half-maximal inhibitory concentration (IC50) in data set [15] is 340 ± 20 µM; in data set [16], over 1000 µM. The “Bcl-2 and Bax levels” value in [18] is given as “did not alter”. The “in vitro survival of CLL cells after treatment compared to before treatment” value in [19] (patient one, FIG. 7) is on record as “less dramatic but similar effect”; in data set [19] (patient two, FIG. 6), “shortened survival”. Also, the “cell death by apoptosis (DiOC6 staining, dots in left lower box) after versus before treatment” value in data set [19] (patient two, detectable at 12 hours, increases after 24 hours, FIG. 8) is recorded as “much higher”. Also, the CLL cells killed in data set [4] (200 μM, 48 hour exposure, FIG. 2) was 50%. The “cytotoxic effect on CLL cells, either drug alone” value in data set [4] (fludarabine 10 nM or etodolac 10 μM alone, 48 hours, FIG. 3) is on record as “ineffective”. Also, in data set [20], the “concentration at which significant death of normal PBLs occurred” value came out at 800 µM. For the same molecule, the Bag-1 levels entry in data set [22] is reported as “fell”. The elimination half-life in data set [12] (in vivo) was 6 to 8 h. The “activity in prostatectomy samples” value in data set [14] is listed as “active”. Besides, the “effect on normal basal cells in prostatectomy samples” value in data set [14] was “did not affect normal basal cells”. Also, in [14] (FIG. 15), the “toxicity to tumor cells in prostatectomy samples” value is on record as “selectively toxic to the tumor cells”. The Mcl-1 levels result in data set [17] (100 μM, as early as two hours, LNCaP, FIG. 11A) is listed as “fell”. Also, the “viability of normal B cells compared to control cultures” value in data set [23] is “did not reduce the viability”.

Source of the values: patent US7361680B2, “Indole compounds useful for the treatment of cancer” (The Regents of the University of California, priority 1999, dated 2008).
